Results taken from BigSolDB 2.1.

O=c1[nH]c(=O)n(C2CCCO2)cc1F (centres undefined)
solubility (mole fraction)
Conditions	273.15 K	278.15 K	283.15 K	288.15 K	293.15 K	298.15 K	303.15 K	308.15 K	313.15 K
in acetone	0.00932	0.0115	0.014	0.0168	0.0196	0.0233	0.0277	0.0326	0.0388
in ethanol	0.00118	0.00152	0.00198	0.00253	0.00318	0.00402	0.00506	0.00629	0.00767
in ethyl acetate	0.00607	0.00718	0.00837	0.00957	0.0109	0.0122	0.0137	0.0153	0.0175
in isopropanol	0.00086	0.00109	0.00139	0.00179	0.00227	0.00286	0.00358	0.00444	0.00547
in methanol	0.00362	0.00428	0.00495	0.00592	0.00692	0.00802	0.00925	0.0107	0.0126
in n-propanol	0.00112	0.00141	0.00176	0.00223	0.00274	0.00343	0.0042	0.00516	0.00618
